The source made the active and inactive calls.
Key:
Vero [1] = experiment: cells; format: functional, cell-based; conditions: Chlorocebus sabaeus
Vero [2] = experiment: cells; format: functional; conditions: Chlorocebus sabaeus
CAAX prenyl protease 2 [3] = molecular target: T1, CAAX prenyl protease 2 (Homo sapiens, UniProt Q9Y256); experiment: human Rce1 protease inhibitors, dose response, biochemical, yeast membranes, quenched-peptide fluorescence, cherry-pick (AID 588849)
T1 sequence (Q9Y256 whole entry): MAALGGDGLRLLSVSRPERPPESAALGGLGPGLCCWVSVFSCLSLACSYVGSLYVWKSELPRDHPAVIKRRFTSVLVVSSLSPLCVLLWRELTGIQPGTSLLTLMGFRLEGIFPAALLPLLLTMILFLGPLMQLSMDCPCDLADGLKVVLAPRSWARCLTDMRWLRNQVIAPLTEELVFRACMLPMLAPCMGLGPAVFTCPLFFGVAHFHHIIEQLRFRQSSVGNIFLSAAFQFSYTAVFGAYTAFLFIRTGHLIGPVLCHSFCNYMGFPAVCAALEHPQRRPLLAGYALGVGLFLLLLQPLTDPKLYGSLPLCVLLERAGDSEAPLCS

CAAX prenyl protease 2 [4] = molecular target: T2, CAAX prenyl protease 2 (Saccharomyces cerevisiae S288c, UniProt Q03530); format: biochemical
T2 sequence (Q03530 whole entry): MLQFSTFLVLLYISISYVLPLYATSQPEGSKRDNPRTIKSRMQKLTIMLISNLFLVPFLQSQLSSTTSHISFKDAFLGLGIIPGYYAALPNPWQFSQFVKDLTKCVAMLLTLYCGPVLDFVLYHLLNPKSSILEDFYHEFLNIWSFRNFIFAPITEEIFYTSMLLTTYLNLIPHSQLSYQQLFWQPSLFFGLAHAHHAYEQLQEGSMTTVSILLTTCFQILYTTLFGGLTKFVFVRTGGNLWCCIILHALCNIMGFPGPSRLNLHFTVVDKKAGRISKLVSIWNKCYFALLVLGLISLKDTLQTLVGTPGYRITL

[5] = Shn3 3'UTR reporter inhibitors, dose response, cell-based, Clone20 osteoblasts, firefly luciferase, cherry-picked (AID 624132); format: functional;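 also: firefly luciferase luminescence from reporter carrying the Shn3 3'UTR in osteoblasts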
[6] = control 3'UTR Renilla luciferase suppression, dose response, counter-screen for Shn3 inhibitor project, cell-based, Clone20-Shn3RL, cherry-picked (AID 624133); format: functional
Protein Wnt-3a = Protein Wnt-3a (Mus musculus, UniProt P27467); experiment: Wnt3a-driven reporter signaling inhibition, dose response, selectivity assay for Gli-SUFU antagonist project, Wnt-LIGHT cells, luminescence (AID 651570); format: functional; conditions: read-out: IC50_Mean;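 also: Wnt-LIGHT reporter cells stimulated with conditioned medium from Wnt3a-producing cells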
[7] = cytotoxicity in MIN6 insulinoma cells, dose response, cytotoxicity control, cell-based, mouse insulinoma (AID 2122); format: functional;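 also: confirmatory high-throughput counterscreen run to flag cytotoxic compounds; mouse MIN-6 beta cells carrying an insulin promoter eGFP reporter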
[8] = insulin promoter down-regulators in MIN6 cells, imaging, high-content screening, mouse beta cells (AID 1628); format: functional
[9] = molecular target: Glucose-6-phosphate 1-dehydrogenase (Homo sapiens, UniProt P11413); experiment: human G6PD enzyme inhibitors, dose response, selectivity assay for P. falciparum G6PD inhibitor project, biochemical, fluorescence (AID 504792); format: functional
Protein skinhead-1 = molecular target: T3, Protein skinhead-1 (Caenorhabditis elegans, UniProt P34707); format: functional
T3 sequence (P34707 whole entry): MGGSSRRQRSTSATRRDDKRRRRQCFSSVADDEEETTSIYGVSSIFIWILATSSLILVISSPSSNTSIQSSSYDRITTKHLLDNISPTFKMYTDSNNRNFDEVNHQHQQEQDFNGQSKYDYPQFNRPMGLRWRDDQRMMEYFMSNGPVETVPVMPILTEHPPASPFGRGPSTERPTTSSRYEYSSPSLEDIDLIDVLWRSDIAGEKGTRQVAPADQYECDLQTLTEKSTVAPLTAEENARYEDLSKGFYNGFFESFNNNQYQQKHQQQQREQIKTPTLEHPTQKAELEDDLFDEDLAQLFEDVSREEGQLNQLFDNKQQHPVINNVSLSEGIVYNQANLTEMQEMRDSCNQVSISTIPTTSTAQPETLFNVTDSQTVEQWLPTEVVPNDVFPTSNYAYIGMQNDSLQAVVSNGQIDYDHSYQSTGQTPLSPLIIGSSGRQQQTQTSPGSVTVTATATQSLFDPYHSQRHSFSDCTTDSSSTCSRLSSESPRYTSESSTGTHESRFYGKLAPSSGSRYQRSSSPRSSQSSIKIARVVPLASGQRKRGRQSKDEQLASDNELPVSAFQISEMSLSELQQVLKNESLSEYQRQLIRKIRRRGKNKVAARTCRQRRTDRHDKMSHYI

Leucine aminopeptidase = molecular target: T4, Leucine aminopeptidase (Plasmodium falciparum 3D7, UniProt Q8IL11); experiment: P. falciparum M17LAP inhibitors, primary screen, biochemical, fluorogenic H-Leu-NHMec substrate, 1536-well (AID 1619); format: functional
T4 sequence (Q8IL11 whole entry): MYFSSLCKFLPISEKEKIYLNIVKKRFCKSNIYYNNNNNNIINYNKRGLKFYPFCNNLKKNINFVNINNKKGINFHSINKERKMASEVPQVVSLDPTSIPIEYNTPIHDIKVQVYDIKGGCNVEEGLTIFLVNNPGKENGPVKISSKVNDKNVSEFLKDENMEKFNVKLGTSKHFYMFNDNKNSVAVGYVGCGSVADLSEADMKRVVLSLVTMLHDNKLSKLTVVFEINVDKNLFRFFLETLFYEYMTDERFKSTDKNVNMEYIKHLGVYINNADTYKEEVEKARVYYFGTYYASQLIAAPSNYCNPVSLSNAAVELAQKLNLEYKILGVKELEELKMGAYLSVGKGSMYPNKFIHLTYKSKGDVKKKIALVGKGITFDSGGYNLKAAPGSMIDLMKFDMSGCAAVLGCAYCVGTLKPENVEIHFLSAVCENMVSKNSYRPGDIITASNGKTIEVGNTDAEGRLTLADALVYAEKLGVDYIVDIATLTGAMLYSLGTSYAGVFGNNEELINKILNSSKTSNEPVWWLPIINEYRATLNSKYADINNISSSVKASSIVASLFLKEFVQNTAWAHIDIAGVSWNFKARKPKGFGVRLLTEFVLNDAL

[10] = HEp-2 cell cytotoxicity, dose response, cytotoxicity control for RSV inhibitor project, HTS (AID 2410); format: functional; conditions: human respiratory syncytial virus
[11] = molecular target: Intestinal-type alkaline phosphatase (Homo sapiens, UniProt P09923); experiment: inhibition of human intestinal alkaline phosphatase – biochemical, dose response (AID 488876); format: functional
[12] = molecular target: T5, Alkaline phosphatase, tissue-nonspecific isozyme (Homo sapiens, UniProt P05186); experiment: TNAP enzyme inhibition by screening hits, dose response, selectivity assay for mouse IAP inhibitor project, biochemical, human TNAP, uHTS hits (AID 488906); format: functional
T5 sequence (P05186 whole entry): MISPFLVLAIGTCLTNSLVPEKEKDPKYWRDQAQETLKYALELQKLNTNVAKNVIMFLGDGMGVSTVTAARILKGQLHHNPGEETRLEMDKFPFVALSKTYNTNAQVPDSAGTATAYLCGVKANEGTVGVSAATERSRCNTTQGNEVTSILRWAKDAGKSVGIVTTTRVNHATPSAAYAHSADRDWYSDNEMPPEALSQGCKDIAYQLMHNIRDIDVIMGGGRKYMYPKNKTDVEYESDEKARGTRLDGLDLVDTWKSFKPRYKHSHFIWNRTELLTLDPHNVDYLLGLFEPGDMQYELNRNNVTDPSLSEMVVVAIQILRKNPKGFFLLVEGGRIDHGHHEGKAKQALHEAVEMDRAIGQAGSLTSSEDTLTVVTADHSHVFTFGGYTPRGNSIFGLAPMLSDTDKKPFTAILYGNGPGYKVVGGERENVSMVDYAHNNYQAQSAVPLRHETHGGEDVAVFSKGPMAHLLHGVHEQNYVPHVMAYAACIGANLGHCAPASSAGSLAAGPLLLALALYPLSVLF

[13] = molecular target: FAD-linked sulfhydryl oxidase ALR (Homo sapiens, UniProt P55789); experiment: inhibitors of human ALR sulfhydryl oxidase, dose response, biochemical, H2O2 detection, luminescence, cherry-pick (AID 493248)
[14] = molecular target: Intestinal-type alkaline phosphatase (Mus musculus, UniProt P24822); experiment: PubChem AID 488785; format: functional
[15] = Luminescence Cell-Based Dose Retest to Confirm Inhibitors of Cancer Stem Cells. [Related pubchem assays (depositor defined):AID2717, AID2721]; format: functional; conditions: Homo sapiens
cells = format: functional

Intestinal-type alkaline phosphatase (Homo sapiens, UniProt P09923), sequence (P09923 whole entry): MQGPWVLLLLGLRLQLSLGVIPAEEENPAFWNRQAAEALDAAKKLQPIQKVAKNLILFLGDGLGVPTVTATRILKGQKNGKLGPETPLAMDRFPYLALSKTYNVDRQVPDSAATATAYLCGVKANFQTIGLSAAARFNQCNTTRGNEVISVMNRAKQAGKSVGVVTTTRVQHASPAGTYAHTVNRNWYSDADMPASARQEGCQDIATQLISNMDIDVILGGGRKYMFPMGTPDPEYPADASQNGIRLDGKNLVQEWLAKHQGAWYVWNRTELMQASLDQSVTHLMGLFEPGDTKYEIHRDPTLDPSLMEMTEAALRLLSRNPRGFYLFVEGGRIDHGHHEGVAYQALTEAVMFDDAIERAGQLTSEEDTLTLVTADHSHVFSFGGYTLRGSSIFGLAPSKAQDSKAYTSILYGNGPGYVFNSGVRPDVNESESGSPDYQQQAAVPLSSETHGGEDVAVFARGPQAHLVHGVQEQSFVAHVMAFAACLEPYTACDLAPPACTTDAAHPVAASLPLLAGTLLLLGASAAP
Intestinal-type alkaline phosphatase (Mus musculus, UniProt P24822), sequence (P24822 whole entry): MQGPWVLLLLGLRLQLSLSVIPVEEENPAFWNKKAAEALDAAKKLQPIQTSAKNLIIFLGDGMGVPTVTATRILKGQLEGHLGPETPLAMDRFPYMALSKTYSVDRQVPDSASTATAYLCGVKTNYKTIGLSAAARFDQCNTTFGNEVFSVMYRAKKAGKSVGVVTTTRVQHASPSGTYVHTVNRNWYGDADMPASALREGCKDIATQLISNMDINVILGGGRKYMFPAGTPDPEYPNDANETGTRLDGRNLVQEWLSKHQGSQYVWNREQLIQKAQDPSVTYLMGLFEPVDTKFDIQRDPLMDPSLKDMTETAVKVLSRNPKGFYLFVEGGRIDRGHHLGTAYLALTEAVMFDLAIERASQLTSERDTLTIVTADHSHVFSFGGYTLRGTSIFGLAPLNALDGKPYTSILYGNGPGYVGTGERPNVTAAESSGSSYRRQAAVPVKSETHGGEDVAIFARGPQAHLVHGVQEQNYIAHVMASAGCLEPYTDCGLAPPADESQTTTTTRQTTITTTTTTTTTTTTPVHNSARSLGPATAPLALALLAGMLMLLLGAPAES
Glucose-6-phosphate 1-dehydrogenase, sequence (P11413 whole entry): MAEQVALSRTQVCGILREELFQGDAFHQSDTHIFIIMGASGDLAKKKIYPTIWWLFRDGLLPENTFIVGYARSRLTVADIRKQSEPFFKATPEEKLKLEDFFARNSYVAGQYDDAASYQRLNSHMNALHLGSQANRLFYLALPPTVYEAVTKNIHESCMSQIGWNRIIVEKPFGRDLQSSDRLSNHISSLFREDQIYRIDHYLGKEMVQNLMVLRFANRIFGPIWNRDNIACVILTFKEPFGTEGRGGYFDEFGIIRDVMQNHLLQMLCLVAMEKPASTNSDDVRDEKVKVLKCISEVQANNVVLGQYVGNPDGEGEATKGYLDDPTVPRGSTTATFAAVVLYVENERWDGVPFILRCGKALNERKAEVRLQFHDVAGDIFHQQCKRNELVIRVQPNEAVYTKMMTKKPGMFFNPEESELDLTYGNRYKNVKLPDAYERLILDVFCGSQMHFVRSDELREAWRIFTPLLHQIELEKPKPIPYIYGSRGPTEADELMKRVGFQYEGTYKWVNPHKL
Protein Wnt-3a, sequence (P27467 whole entry): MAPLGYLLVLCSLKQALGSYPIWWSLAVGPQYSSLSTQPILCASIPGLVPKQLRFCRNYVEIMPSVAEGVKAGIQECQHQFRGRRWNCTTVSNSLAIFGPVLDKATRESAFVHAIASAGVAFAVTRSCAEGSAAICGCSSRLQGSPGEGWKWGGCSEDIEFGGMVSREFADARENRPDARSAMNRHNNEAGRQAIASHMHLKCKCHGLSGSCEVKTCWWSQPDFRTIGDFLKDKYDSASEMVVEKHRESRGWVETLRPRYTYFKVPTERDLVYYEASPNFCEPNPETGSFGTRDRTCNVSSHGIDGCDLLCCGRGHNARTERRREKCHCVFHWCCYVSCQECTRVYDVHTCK
FAD-linked sulfhydryl oxidase ALR, sequence (P55789 whole entry): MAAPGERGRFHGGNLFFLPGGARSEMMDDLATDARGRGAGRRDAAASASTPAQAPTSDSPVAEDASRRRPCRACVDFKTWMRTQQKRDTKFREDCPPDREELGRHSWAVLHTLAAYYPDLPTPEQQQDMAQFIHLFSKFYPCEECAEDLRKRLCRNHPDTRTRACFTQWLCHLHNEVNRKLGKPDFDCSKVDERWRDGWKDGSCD

With `CN1CCN(CCC=C2c3ccccc3Sc3ccc(S(=O)(=O)N(C)C)cc32)CC1` the IC50 (Vero [1]) was > 25 µM (active) and the CC50 (Vero [2]) was 19.7 µM (active).

With `COC(=O)c1nc(N)sc1-c1ccc(Cl)c(Cl)c1` the AC50 (CAAX prenyl protease 2 [3]) was 11.6 µM (active) and the AC50 (CAAX prenyl protease 2 [4]) was 21.3 µM (active).

With `O=C(Cn1cc(C(=O)c2ccco2)c2ccccc21)Nc1ccccc1F` the AC50 [5] was 2.6 µM (active), the AC50 [6] was 4.67 µM (active) and the IC50 (Protein Wnt-3a) was 4.08 µM (active). The IC50 [7] was 1.33 µM (active) and the IC50 [8] was 1.79 µM (active).

For `COc1cc(CN2CCN(CCCc3ccccc3)C(CCO)C2)cc(OC)c1O` (stereo unspecified), the IC50 [9] was 58.7 µM (inactive).

With `COc1ccc(Nc2nnc(SCC(=O)/C=C3/N(C)c4ccccc4C3(C)C)s2)cc1` the IC50 (Protein skinhead-1) was > 100 µM (inactive), the IC50 (Leucine aminopeptidase) was 21.1 µM (active) and the IC50 [7] was 1.72 µM (active). The IC50 [8] was 1.64 µM (active) and the CC50 [10] was 7.33 µM (active).

For `Cc1cc(O)c(Sc2nc[nH]n2)cc1NS(=O)(=O)c1ccc(Cl)cc1`, the IC50 [11] was > 100 µM (inactive), the IC50 [12] was 92.6 µM (active) and the AC50 [13] was 1.52 µM (active). For the same compound, the IC50 [14] was 5.84 µM (active).

With `Cc1ccc(/C=C2\SC(=S)N(CCC(=O)N3CCOCC3)C2=O)cc1` the IC50 (Vero [1]) was > 25 µM (active) and the CC50 (Vero [2]) was 14.5 µM (active).

With `O=C(NC1CCCCC1)c1ccc2ccccc2c1O` the IC50 (Vero [1]) was 11.3 µM (active).

For `C#CCOCCOCCOCCNc1nc(N2CCN(C(=O)CCCCCCCCCCNC(=O)Cn3cc(C[C@@H](C)O)nn3)CC2)nc(N2CCN(C(=O)CCCCCCCCCCNC(=O)[C@@H](CCSC)n3cc(CCO)nn3)CC2)n1`, the IC50 [11] was 36.3 µM (active), the IC50 [12] was 27.3 µM (active) and the IC50 [14] was 27.6 µM (active).

With `C#CCOCCOCCOCCNc1nc(N2CCN(C(=O)CCCCCCCCCCNC(=O)Cn3cc(C[C@@H](C)O)nn3)CC2)nc(N2CCN(C(=O)CCCCCCCCCCNC(=O)[C@H](CCCCN)n3cc(C[C@@H](C)CC)nn3)CC2)n1` the IC50 [11] was > 100 µM (inactive), the IC50 [12] was 95.5 µM (active) and the IC50 [14] was 4.71 µM (active). The AC50 [15] was 7.11 µM (active).

With `Cc1nnc(N/N=C/c2ccc(-c3ccccc3F)o2)n1N` the IC50 (cells) was 22.3 µM (active) and the IC50 [9] was > 80 µM (inactive).
